The target of the assay is cGMP-specific 3',5'-cyclic phosphodiesterase (Homo sapiens, UniProt O76074). The experiment in a line: Binding affinity to recombinant PDE5 catalytic domain (unknown origin) by ITC analysis. On the technique in general: In ITC the heat of successive injections is recorded.

The structures appear in SMILES notation.

One may read the Kd as the free concentration of one partner at which half of the binding sites on the other are occupied at equilibrium, for simple one-to-one binding. Take `CCCOc1ccc(S(=O)(=O)N2CCN(C)CC2)cc1-c1nc(CC)cc(=O)[nH]1`: the dissociation constant Kd was found to be 1.45 µM. As for `CCCOc1ccc(S(=O)(=O)N2CCN(C)CC2)cc1-c1nc(CC)c(F)c(=O)[nH]1`, the dissociation constant Kd stood at 1.73 µM. For `CCCOc1ccc(S(=O)(=O)N2CCN(C)CC2)cc1-c1nc(CC)c(Cl)c(=O)[nH]1`, the Kd amounted to 0.767 µM. Regarding `CCCOc1ccc(S(=O)(=O)N2CCN(C)CC2)cc1-c1nc(CC)c(Br)c(=O)[nH]1`, the equilibrium dissociation constant (Kd) stood at 0.416 µM. Take `CCCOc1ccc(S(=O)(=O)N2CCN(C)CC2)cc1-c1nc(CC)c(I)c(=O)[nH]1`: the Kd was found to be 0.152 µM.

Source of the values: ChEMBL document CHEMBL3232929, “Thermodynamic and structural characterization of halogen bonding in protein-ligand interactions: a case study of PDE5 and its inhibitors” (J Med Chem, 2014).
